This note sets out measurements from patent US8084643B2, “Water-soluble prodrugs of florfenicol and its analogs” (Intervet Inc., priority 2006, dated 2011).

Each structure is given as a SMILES string. Like-named read-outs stand apart in the source and are kept apart here.

Series [1] can be described thus: Stability of prodrugs in aqueous solution at pH 7.4 (phosphate buffer). The series is classed as physicochemical. The following applies: in vitro evaluation, pH 7.4 adjusted solution.
The nature of series [2]: Stability of prodrugs in aqueous solution at pH 4.5. The series is classed as physicochemical. The conditions noted are these: distilled water, pH 4.5, room temperature, florfenicol release by HPLC. As for the experimental part:
(§1) Determination of stability of prodrugs in aqueous solutions. Prodrugs were dissolved in pH 7.4 phosphate buffer at concentration of 1 mg/mL. • The clear solution was placed at room temperature. 400 μL aliquots of the solution were transferred at times 0, 1, 2, 8, 24, and 48 hours to plastic tubes containing 400 μL dilute HCl solution to achieve the final pH of around 4.0. Samples were analyzed by HPLC. The peak area of florfenicol was used to determine the rate of the parent drug release. at pH 4.5 • Prodrugs were dissolved in distilled water at concentration of 0.5 mg/mL. The pH was adjusted to 4.5 with dilute HCl when necessary. The clear solution was placed at room temperature. Samples for analysis were removed at times 0, 1, 2, 4, and 7 days. Samples were analyzed by HPLC. Peak area of florfenicol was used to determine the rate of the parent drug release. Instrument: Agilent 1100 Column: C18, 5 mm, 2.1 mm×150 mm Flow rate: 0.5 mL/min Temperature: 30° C. Detector: UV 254 nm Injection volume: 10 mL Solvent: gradient with 0.1% formic acid in water, acetonitrile

Series [3] can be described thus: Stability of prodrugs in aqueous solution at pH 7.4 (phosphate buffer). The series is classed as physicochemical. As for the experimental part:
Determination of stability of prodrugs in aqueous solutions.
as §1, with “Prodrugs” for “Determination of stability of prodrugs in aqueous solutions. Prodrugs”, “release.” for “release. Instrument: Agilent 1100 Column: C18, 5 mm, 2.1 mm×150 mm Flow rate: 0.5 mL/min Temperature: 30° C. Detector: UV 254 nm Injection volume: 10 mL Solvent: gradient with 0.1% formic acid in water, acetonitrile”
(§2) Solvent: gradient with 0.1% formic acid in water, acetonitrile

Series [4] in a line: Stability of prodrugs in bovine serum. The series is classed as in vitro ADME. The following applies: for half-life at 0.099 mg/mL: 37° C. As for the experimental part:
(§3) Determination of stability of prodrugs in bovine or swine serum; • 10 mg/mL in dimethylsulfoxide stock solutions of pro-drugs were prepared. 50 μL of the above stock solution was added to 5 mL bovine or swine serum, and mixed. 400 μL aliquots of the above pro-drug serum solutions were transferred into plastic tubes (one tube per time point). Solutions were incubated at 37° C. for predetermined time. Samples were removed at times 0, 1, 2, 4, 8, and 24 hours and were spiked with 400 μL of acetonitrile. Samples were stirred for 30 seconds to precipitate the protein and to stop the reaction and were centrifuged at 14,000 rpm for 5 minutes. The supernatant was collected for HPLC analysis. Peak area of florfenicol was used to determine the rate of the parent drug release HPLC Conditions
as §2

The nature of series [5]: Stability of prodrugs in swine serum. The series is classed as in vitro ADME. The conditions noted are these: 37° C., florfenicol release by HPLC. As for the experimental part:
as §3, §2

[6] abbreviates: pH 7.4, pH 7.4 aqueous solutions, range from a few minutes to 3 hrs, read-out: Half-lives in pH 7.4 aqueous solutions.
[7] abbreviates: pH 7.4, pH 7.4 phosphate buffer, 1 mg/mL, room temperature, florfenicol release by HPLC, read-out: Half life pH 7.4 (converted).

In the case of `CS(=O)(=O)c1ccc([C@@H](OC(=O)OCCN)[C@@H](CF)NC(=O)C(Cl)Cl)cc1.Cl` [Example 1, (1R,2S)-2-(2,2-dichloroacetamido)-3-fluoro-1-(4-(methylsulfonyl)phenyl)propyl 2-aminoethyl carbonate hydrochloride], the “formation of the rearranged isomer of the prodrug” value (shortened to “formation”) in series [1] is “considerable amounts”. Also, the half-life at 0.5 mg/mL in series [2] is 202 days. Further, the half-life at 1 mg/mL in series [3] (setting [6]) was not above 3 h; in series [3] (setting [7]), 1.8 h. Moreover, the half-life at 0.099 mg/mL in series [4] (florfenicol release by HPLC) is 0.7 h.
As to `CNCCOC(=O)O[C@H](c1ccc(S(C)(=O)=O)cc1)[C@@H](CF)NC(=O)C(Cl)Cl.Cl` [Example 2, (1R,2S)-2-(2,2-dichloroacetamido)-3-fluoro-1-(4-(methylsulfonyl)phenyl)propyl 2-(methylamino)ethyl carbonate hydrochloride], the “formation” value in series [1] is “considerable amounts”. Moreover, the half-life at 0.5 mg/mL in series [2] was 487 days. Further, the figures for the half-life at 1 mg/mL in series [3] (setting [6]) and in series [3] (setting [7]) were not above 3 h and 0.5 h, respectively.
Take `CS(=O)(=O)c1ccc([C@@H](OC(=O)CCCN)[C@@H](CF)NC(=O)C(Cl)Cl)cc1.Cl` [Example 3, (1R,2S)-2-(2,2-dichloroacetamido)-3-fluoro-1-(4-(methylsulfonyl)phenyl)propyl 4-aminobutyrate hydrochloride]: the half-life at 1 mg/mL in series [3] (setting [7]) was 300 h. Besides, in series [4] (florfenicol release by HPLC), the half-life at 0.099 mg/mL was 3.5 h.
With `C[C@@H](N)C(=O)NCCCC(=O)O[C@H](c1ccc(S(C)(=O)=O)cc1)[C@@H](CF)NC(=O)C(Cl)Cl.Cl` [Example 4, (1R,2S)-2-(2,2-dichloroacetamido)-3-fluoro-1-(4-(methylsulfonyl)phenyl)propyl 4-(2-amino-propionylamino)butyrate hydrochloride], the half-life at 0.5 mg/mL in series [2] is 278 days. Moreover, the half-life at 1 mg/mL in series [3] (setting [7]) is 670 h. Besides, the half-life at 0.099 mg/mL in series [4] (florfenicol release by HPLC) is 6.5 h.
Turning to `CS(=O)(=O)c1ccc([C@@H](OC(=O)OCCCN)[C@@H](CF)NC(=O)C(Cl)Cl)cc1.Cl` [Example 5, (1R,2S)-2-(2,2-dichloroacetamido)-3-fluoro-1-(4-(methylsulfonyl)phenyl)propyl 3-aminopropyl carbonate hydrochloride], the “formation” value in series [1] is “only a small amount of rearrangement product”. Moreover, the half-life at 0.5 mg/mL in series [2] was 248 days. Moreover, the half-life at 0.099 mg/mL in series [5] was 9.5 h; in series [4] (florfenicol release by HPLC), 3.8 h. Also, in series [3] (setting [7]), the half-life at 1 mg/mL was 83 h. In addition, the “rearrangement in bovine serum” value in series [4] is given as “no rearrangement was observed”.
Turning to `CNCCCOC(=O)O[C@H](c1ccc(S(C)(=O)=O)cc1)[C@@H](CF)NC(=O)C(Cl)Cl.Cl` [Example 6, (1R,2S)-2-(2,2-dichloroacetamido)-3-fluoro-1-(4-(methylsulfonyl)phenyl)propyl 3-(methylamino)propyl carbonate hydrochloride], the “formation” value in series [1] was “did not show any formation of the rearranged isomer”. In addition, in series [2], the half-life at 0.5 mg/mL is 269 days. Also, the half-life at 0.099 mg/mL in series [5] is 7 h; in series [4] (florfenicol release by HPLC), 0.69 h. The half-life at 1 mg/mL in series [3] (setting [7]) is 74 h.
For `CCNCCOC(=O)O[C@H](c1ccc(S(C)(=O)=O)cc1)[C@@H](CF)NC(=O)C(Cl)Cl.Cl` [Example 7, (1R,2S)-2-(2,2-dichloroacetamido)-3-fluoro-1-(4-(methylsulfonyl)phenyl)propyl 2-(ethylamino)ethyl carbonate hydrochloride], the “formation” value in series [1] was “considerable amounts”. The half-life at 0.5 mg/mL in series [2] is 156 days. The half-life at 1 mg/mL in series [3] (setting [6]) was not above 3 h; in series [3] (setting [7]), 6.1 h. Also, the half-life at 0.099 mg/mL in series [4] (florfenicol release by HPLC) was 0.59 h.
Regarding `CS(=O)(=O)c1ccc([C@@H](OC(=O)[C@H](N)CCCN)[C@@H](CF)NC(=O)C(Cl)Cl)cc1.Cl.Cl` [Example 8], in series [2], the half-life at 0.5 mg/mL is 44 days. Also, the half-life at 1 mg/mL is not above 3 h in series [3] (setting [6]) and less than 0.167 h in series [3] (pH 7.4, pH 7.4 phosphate buffer, 1 mg/mL, room temperature, min, read-out: Half life pH 7.4 (converted)). Besides, the half-life at 0.099 mg/mL in series [4] (min) is less than 0.167 h.
For the compound `CS(=O)(=O)c1ccc([C@@H](OC(=O)CNC(=O)CN)[C@@H](CF)NC(=O)C(Cl)Cl)cc1.Cl` [Example 9, (1R,2S)-2-(2,2-dichloroacetamido)-3-fluoro-1-(4-(methylsulfonyl)phenyl)propyl (1-amino-acetoamino)acetate hydrochloride], the half-life at 0.5 mg/mL in series [2] is 52 days. In addition, the half-life at 0.099 mg/mL was 1.2 h in series [5] and 1.4 h in series [4] (florfenicol release by HPLC). Also, the half-life at 1 mg/mL in series [3] (setting [6]) was not above 3 h; in series [3] (setting [7]), 0.89 h.
For `CS(=O)(=O)c1ccc([C@@H](OC(=O)CCCCN)[C@@H](CF)NC(=O)C(Cl)Cl)cc1.Cl` [Example 10, (1R,2S)-2-(2,2-dichloroacetamido)-3-fluoro-1-(4-(methylsulfonyl)phenyl)propyl 5-aminopentanoate hydrochloride], the half-life at 0.5 mg/mL in series [2] was 643 days. Moreover, the half-life at 0.099 mg/mL in series [5] is 4.1 h; in series [4] (florfenicol release by HPLC), 0.49 h. The half-life at 1 mg/mL in series [3] (setting [7]) was 100 h.
On to `C[C@H](N)C(=O)N[C@@H](C)C(=O)O[C@H](c1ccc(S(C)(=O)=O)cc1)[C@@H](CF)NC(=O)C(Cl)Cl.Cl` [Example 11, (1R,2S)-2-(2,2-dichloroacetamido)-3-fluoro-1-(4-(methylsulfonyl)phenyl)propyl 2-(2-amino-propionylamino)propionate hydrochloride], for which, in series [2], the half-life at 0.5 mg/mL was 290 days. Besides, the half-life at 1 mg/mL in series [3] (setting [6]) is not above 3 h; in series [3] (setting [7]), 2.5 h. In series [4] (min), the half-life at 0.099 mg/mL was less than 0.167 h.
For `CNCCCCC(=O)O[C@H](c1ccc(S(C)(=O)=O)cc1)[C@@H](CF)NC(=O)C(Cl)Cl.Cl` [Example 12], the half-life at 0.5 mg/mL in series [2] was 567 days. For the same compound, in series [3] (setting [7]), the half-life at 1 mg/mL was 84 h. Besides, the half-life at 0.099 mg/mL in series [4] (florfenicol release by HPLC) is 1.4 h.
For `CCNCCCOC(=O)O[C@H](c1ccc(S(C)(=O)=O)cc1)[C@@H](CF)NC(=O)C(Cl)Cl.Cl` [Example 13, (1R,2S)-2-(2,2-dichloroacetamido)-3-fluoro-1-(4-(methylsulfonyl)phenyl)propyl 3-(ethylamino)propyl carbonate hydrochloride], in series [2], the half-life at 0.5 mg/mL is 339 days. The half-life at 1 mg/mL in series [3] (setting [7]) is 290 h. In series [4] (florfenicol release by HPLC), the half-life at 0.099 mg/mL is 0.71 h.
For `CS(=O)(=O)c1ccc([C@@H](OC(=O)COCCN)[C@@H](CF)NC(=O)C(Cl)Cl)cc1.Cl` [Example 14, (1R,2S)-2-(2,2-dichloroacetamido)-3-fluoro-1-(4-(methylsulfonyl)phenyl)propyl (2-amino-ethoxy)acetate hydrochloride], the half-life at 0.5 mg/mL in series [2] was 137 days. Also, the values for the half-life at 1 mg/mL in series [3] (setting [6]) and in series [3] (setting [7]) were not above 3 h and 0.66 h, respectively. Moreover, in series [4] (min), the half-life at 0.099 mg/mL is less than 0.167 h.
With `Br.C[N+](C)(C)CCCC(=O)O[C@H](c1ccc(S(C)(=O)=O)cc1)[C@@H](CF)NC(=O)C(Cl)Cl` [Example 15], the half-life at 0.5 mg/mL in series [2] is more than 1000 days. In addition, the half-life at 1 mg/mL in series [3] (setting [7]) was 160 h.
Consider `Br.Cn1cc[n+](CCCC(=O)O[C@H](c2ccc(S(C)(=O)=O)cc2)[C@@H](CF)NC(=O)C(Cl)Cl)c1` [Example 16, 1-[3-[2-(2,2-Dichloro-acetylamino)-3-fluoro-1-(4-methanesulfonyl-phenyl)-propoxycarbonyl]-propyl]-3-methyl-3H-imidazol-1-ium bromide], for which the half-life at 0.5 mg/mL in series [2] is more than 1000 days. Besides, in series [3] (setting [7]), the half-life at 1 mg/mL is 350 h. Moreover, the half-life at 0.099 mg/mL in series [4] (florfenicol release by HPLC) was 10.5 h.
Consider `CS(=O)(=O)c1ccc([C@@H](OC(=O)CN)[C@@H](CF)NC(=O)C(Cl)Cl)cc1` [Example 17, Amino-acetic acid 2-(2,2-dichloro-acetylamino)-3-fluoro-1-(4-methanesulfonyl-phenyl)-propyl ester], for which, in series [2], the half-life at 0.5 mg/mL was 18 days. Also, the half-life at 1 mg/mL in series [3] (setting [7]) is 4.4 h. Besides, the half-life at 0.099 mg/mL in series [4] (florfenicol release by HPLC) is 1.8 h.
